In PMC9490236, “Accurate de novo design of membrane-traversing macrocycles” (Cell, 2022):
Where a SMILES comes first, the peptide text is derived from it. [ ]: non-standard residue; d: D form. dNMeF = CN[C@H](Cc1ccccc1)C(=O)O; NMeL = CN[C@@H](CC(C)C)C(=O)O; dNMeL = CN[C@H](CC(C)C)C(=O)O; NMeA = CN[C@@H](C)C(=O)O; dNMeA = CN[C@H](C)C(=O)O; Aib = CC(C)(N)C(=O)O

How the values were obtained:
in vitro = settings: PAMPA, PAMPA_Papp_Avg
[1] = PAMPA
[2] = Caco-2 permeability assay (apical to basolateral); assay type: in vitro ADME, human; settings: for Papp A→B: Caco-2, Caco_Papp_Average
Protocol: (§1) Human colon adenocarcinoma-derived Caco-2 cell line was used as a model system to investigate the intestinal epithelial permeability of our designs. Caco-2 cells were propagated in T125 flasks (Corning, Merck) using Dulbecco’s modified Eagle medium supplemented with 10% (v/v) fetal bovine serum, 1% (v/v) nonessential amino acids, and 1% (v/v) penicillin-streptomycin (Gibco, Thermo Fisher Scientific) at 37°C in an atmosphere of 5% CO2. Cells were subcultured when they reached 80% confluence.
(§2) The permeability of designed peptides was evaluated using an accelerated 6-day Caco-2 permeability assay as described previously ([Sevin et al., 2013]). In brief, cells were seeded into the 12-well Transwell plates with 0.4 μm polyester membrane inserts (Corning, Merck) to give 4.0 × 10^5 cells/well. The complete assay medium contained Dulbecco’s modified Eagle medium supplemented with 10% (v/v) fetal bovine serum, 1% (v/v) nonessential amino acids, and 0.4 μg/mL puromycin. The medium in plates was renewed every second day. The inserts received 0.75 mL of assay medium in the upper compartment (apical chamber) and 1.5 mL in the bottom compartment (basolateral chamber) individually. After 6-day incubation or until the cells formed monolayers, the medium in the apical and basolateral chamber was replaced with peptide solutions at 50 μM or Hanks' Balanced Salt Solution (HBSS), separately. The plates were incubated for 90 min at 37°C on an orbital shaker (60 rpm). The peptide concentration of solutions in the apical and basolateral compartments was subsequently quantified using LC-MS (Qstar Elite, AB Sciex Australia) to evaluate the transmembrane flux of peptides in the apical-to-basolateral direction. Membrane integrity of the Caco-2 cell monolayer was validated using trans-epithelial electrical resistance (TEER) measurements before and after the assays. Atenolol and quinidine were included as negative and positive controls in all assays.

Caco-2 cells = experiment: Caco-2 permeability assay (apical to basolateral); assay type: in vitro ADME, human; settings: Caco-2
Protocol: as §1, §2

CC[C@@H](C)[C@H]1NC(=O)[C@@H](Cc2ccccc2)NC(=O)[C@@H](CC(C)C)NC(=O)[C@@H]2CCCN2C(=O)[C@H]2CCCN2C(=O)[C@H](CC(C)C)NC(=O)[C@H](CC(C)C)NC(=O)[C@@H](CC(C)C)N(C)C(=O)[C@H](C)N(C)C(=O)[C@H]2CCCN2C1=O [Design D10.34, DPHE DILE DPRO *ALA *DLEU LEU LEU DPRO PRO DLEU] (cyclo([dL][dF][dI][dP][NMeA][dNMeL]LL[dP]P))
Papp (in vitro): 4.51 ×10⁻⁶ cm/s
PAMPA_R1 [1]: 4.77E-06
PAMPA_R3 [1]: 4.57E-06
Papp A→B [2]: 15 ×10⁻⁶ cm/s
Papp at 90 min, 50 µM ([2]; human, Caco-2): > 10 ×10⁻⁶ cm/s
Caco_R1 (Caco-2 cells): 14.68
Caco_R3 (Caco-2 cells): 14.14

CC[C@@H](C)[C@H]1NC(=O)[C@H](CC(C)C)N(C)C(=O)[C@H]2CCCN2C(=O)[C@H](CC(C)C)NC(=O)[C@H](Cc2ccccc2)N(C)C(=O)[C@H](CC(C)C)N(C)C(=O)[C@@H](C(C)C)NC(=O)[C@H](C)NC(=O)[C@H]2CCCN2C(=O)[C@@H]2CCCN2C1=O [Design D10.17.p2, *LEU *PHE LEU DPRO *LEU DILE PRO DPRO ALA DVAL]
Papp (in vitro): 2.69 ×10⁻⁶ cm/s
PAMPA_R1 [1]: 3.37E-06
PAMPA_R3 [1]: 2.91E-06
Papp A→B [2]: 8.7 ×10⁻⁶ cm/s
Caco_R1 (Caco-2 cells): 12.57
Caco_R3 (Caco-2 cells): 7.84

CC[C@H](C)[C@@H]1NC(=O)[C@@H](CC(C)C)N(C)C(=O)[C@@H]2CCCN2C(=O)[C@H](C(C)C)NC(=O)C(C)(C)NC(=O)[C@H](CC(C)C)NC(=O)C(C)(C)NC(=O)[C@@H]2CCCN2C(=O)[C@H]2CCCN2C1=O [Design D9.1, DPRO PRO AIB LEU AIB VAL PRO *DLEU ILE] (cyclo([Aib]L[Aib]VP[dNMeL]I[dP]P))
Papp (in vitro): 1.59 ×10⁻⁶ cm/s
PAMPA_R1 [1]: 1.43E-06
PAMPA_R3 [1]: 1.63E-06
Papp A→B [2]: 0.897 ×10⁻⁶ cm/s
Caco_R1 (Caco-2 cells): 0.42
Caco_R3 (Caco-2 cells): 2.09

CC[C@@H](C)[C@H]1NC(=O)[C@@H]2CCCN2C(=O)[C@@H]([C@H](C)CC)NC(=O)[C@@H](C)N(C)C(=O)[C@H](CC(C)C)NC(=O)[C@@H](Cc2ccccc2)NC(=O)[C@H](CC(C)C)N(C)C(=O)[C@H]2CCCN2C(=O)[C@@H](CC(C)C)NC(=O)[C@H](CC(C)C)NC(=O)[C@H]2CCCN2C1=O [Design D11.1, DILE DPRO LEU DLEU DPRO *LEU DPHE LEU *DALA DILE PRO] (cyclo(L[dL][dP][NMeL][dF]L[dNMeA][dI]P[dI][dP]))
Papp (in vitro): 3.48 ×10⁻⁶ cm/s
PAMPA_R1 [1]: 3.55E-06
PAMPA_R3 [1]: 3.63E-06
Papp A→B [2]: 2.77 ×10⁻⁶ cm/s
Caco_R1 (Caco-2 cells): 2.39
Caco_R3 (Caco-2 cells): 3.24

CC[C@@H](C)[C@H]1NC(=O)[C@H](C)N(C)C(=O)[C@H]([C@@H](C)CC)NC(=O)[C@H]2CCCN2C(=O)[C@H](CC(C)C)N(C)C(=O)[C@@H](C(C)C)NC(=O)[C@H](C)N(C)C(=O)[C@H]([C@@H](C)CC)NC(=O)[C@@H](CC(C)C)NC(=O)[C@@H]2CCCN2C(=O)[C@H]2CCCN2C1=O [Design D11.10, DPRO ILE *ALA DILE DPRO PRO DLEU ILE *ALA DVAL *LEU] (cyclo([dL]I[NMeA][dV][NMeL][dP]I[NMeA][dI][dP]P))
Papp (in vitro): 2.45 ×10⁻⁶ cm/s
PAMPA_R1 [1]: 2.19E-06
PAMPA_R3 [1]: 3.23E-06
Papp A→B [2]: 4.54 ×10⁻⁶ cm/s
Caco_R1 (Caco-2 cells): 4.35
Caco_R3 (Caco-2 cells): 4.8

CC[C@@H](C)[C@H]1NC(=O)[C@H](CC(C)C)NC(=O)[C@@H](CC(C)C)NC(=O)[C@H](C(C)C)NC(=O)[C@@H](Cc2ccccc2)N(C)C(=O)[C@@H]2CCCN2C(=O)[C@@H](CC(C)C)NC(=O)[C@H](CC(C)C)N(C)C(=O)[C@H]2CCCN2C1=O [Design D9.3, LEU DILE DPRO *LEU DLEU PRO *DPHE VAL DLEU] (cyclo(L[dI][dP][NMeL][dL]P[dNMeF]V[dL]))
Papp (in vitro): 2.33 ×10⁻⁶ cm/s
PAMPA_R1 [1]: 3.06E-06
PAMPA_R3 [1]: 2.01E-06
Papp A→B [2]: 3.53 ×10⁻⁶ cm/s
Caco_R1 (Caco-2 cells): 2.82
Caco_R3 (Caco-2 cells): 3.81
